From patent US20220396565A1 (Hoffmann-La Roche Inc., priority 2020, published 2022)
Where a name gives a salt, the structure may show the parent alone. Read-outs that look alike come from different tables or passages of the source.

System: Acinetobacter baumannii ATCC17978
Experiment: Antimicrobial susceptibility testing: 90% growth inhibitory concentration (IC90) determination, Iso-Sensitest broth
Type: cell-based
In short: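 Growth at OD600 was monitored every 20 min for 16 h at 35±2 °C, with bacteria inoculated at ~5×10^(5) CFU/ml into Iso-Sensitest medium. Compounds were tested as 10-point twofold dilutions (e.g. 10–0.02 μM final). The 90% inhibitory concentration comes from the log-phase growth.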

[1] = 90% growth inhibitory concentration, Acinetobacter baumannii ATCC17978, Iso-Sensitest broth, read-out: ATCC 17978 IC90
[2] = Acinetobacter baumannii, ATCC17978, read-out: ATCC 17978 IC90

SMILES	IC90 [1] [nM]	IC90 [2] [nM]
COc1ccc(-c2cnc(C(=O)Nc3ccc(C(=O)N4CCN(CCN(C)C)CC4)c(Cl)c3)n2C)cc1F [Example 274, N-[3-chloro-4-[4-[2-(dimethylamino)ethyl]piperazine-1-carbonyl]phenyl]-5-(3-fluoro-4-methoxy-phenyl)-1-methyl-imidazole-2-carboxamide formate]	290	–
COc1ccc(-c2cnc(C(=O)Nc3ccc(C(=O)N4CCC(C(=O)N5CCN[C@@H](CO)C5)CC4)c(Cl)c3)n2C)c(Cl)c1F [Example 116, 5-(2-chloro-3-fluoro-4-methoxy-phenyl)-N-[3-chloro-4-[4-[(3R)-3-(hydroxymethyl)piperazine-1-carbonyl]piperidine-1-carbonyl]phenyl]-1-methyl-imidazole-2-carboxamide]	130	–
CN(C)CCN1CCN(C(=O)c2ccc(NC(=O)c3ncc(-c4ccc(OCC#N)c(Cl)c4)n3C)cc2Cl)CC1 [Example 269, 5-[3-Chloro-4-(cyanomethoxy)phenyl]-N-[3-chloro-4-[4-[2-(dimethylamino)ethyl]piperazine-1-carbonyl]phenyl]-1-methyl-imidazole-2-carboxamide trifluoroacetate]	–	70
Cn1c(-c2ccc(OCC#N)c(F)c2F)cnc1C(=O)Nc1ccc(C(=O)N2CCN(C(=O)[C@H]3CCNC3)CC2)c(Cl)c1 [Example 200, (S)-N-(3-chloro-4-(4-(pyrrolidine-3-carbonyl)piperazine-1-carbonyl)phenyl)-5-(4-(cyanomethoxy)-2,3-difluorophenyl)-1-methyl 1H-imidazole-2-carboxamide 2,2,2-trifluoroacetate]	–	50
CN(C)CCN1CCN(C(=O)c2ccc(NC(=O)c3ncc(-c4ccc(OCC#N)c(F)c4Cl)n3C)cc2Cl)CC1 [Example 270, 5-[2-chloro-4-(cyanomethoxy)-3-fluoro-phenyl]-N-[3-chloro-4-[4-[2-(dimethylamino)ethyl]piperazine-1-carbonyl]phenyl]-1-methyl-imidazole-2-carboxamide]	50	–
Cc1cc(NC(=O)c2ncc(-c3ccc(OCC#N)c(F)c3F)n2C)ccc1C(=O)N1CCC(C(=O)N2CCS(=O)(=O)CC2)CC1 [Example 77, 5-(4-(cyanomethoxy)-2,3-difluorophenyl)-N-(4-(4-(1,1-dioxidothiomorpholine-4-carbonyl)piperidine-1-carbonyl)-3-methylphenyl)-1-methyl-1H-imidazole-2-carboxamide]	170	–
CCc1cc(NC(=O)c2ncc(-c3ccc(OC(C)C)c(F)c3)n2C)ccc1C(=O)N1CCN(CCN(C)C)CC1 [Example 276, N-(4-(4-(2-(dimethylamino)ethyl)piperazine-1-carbonyl)-3-ethylphenyl)-5-(3-fluoro-4-isopropoxyphenyl)-1-methyl-1H-imidazole-2-carboxamide]	4020	–
COc1ccc(-c2cnc(C(=O)Nc3ccc(C(=O)N4CCN(C(=O)C5(O)CCNCC5)CC4)c(Cl)c3)n2C)c(Cl)c1F [Example 113, 5-(2-chloro-3-fluoro-4-methoxy-phenyl)-N-[3-chloro-4-[4-(4-hydroxypiperidine-4-carbonyl)piperazine-1-carbonyl]phenyl]-1-methyl-imidazole-2-carboxamide formate]	80	–
CCc1cc(NC(=O)c2ncc(-c3ccc(OC)c(F)c3F)n2C)ccc1C(=O)N1CCC(Cc2nc(C3CCC3)no2)CC1 [Example 27, N-[4-[4-[(3-cyclobutyl-1,2,4-oxadiazol-5-yl)methyl]piperidine-1-carbonyl]-3-ethyl-phenyl]-5-(2,3-difluoro-4-methoxy-phenyl)-1-methyl-imidazole-2-carboxamide]	5700	–
Cc1cc(NC(=O)c2ncc(-c3ccc(OCC#N)c(F)c3F)n2C)ccc1C(=O)N1CCC(C(=O)N2CCOCC2)CC1 [Example 78, 5-(4-(cyanomethoxy)-2,3-difluorophenyl)-1-methyl-N-(3-methyl-4-(4-(morpholine-4-carbonyl)piperidine-1-carbonyl)phenyl)-1H-imidazole-2-carboxamide]	120	–
COc1ccc(-c2cnc(C(=O)Nc3ccc(C(=O)N4CCN(C(=O)C5CCNCC5)CC4)c(C)c3)n2C)c(Cl)c1F [Example 117, 5-(2-chloro-3-fluoro-4-methoxy-phenyl)-1-methyl-N-[3-methyl-4-[4-(piperidine-4-carbonyl)piperazine-1-carbonyl]phenyl]imidazole-2-carboxamide formate]	150	–

Further lines, with some results ahead:

IC90 [1] [nM]	SMILES	IC90 [2] [nM]
100	COc1ccc(-c2cnc(C(=O)Nc3ccc(C(=O)N4CCN(C(=O)[C@@H]5C[C@@H](O)CN5)CC4)c(Cl)c3)n2C)c(F)c1F [Example 106, N-[3-chloro-4-[4-[(2S,4R)-4-hydroxypyrrolidine-2-carbonyl]piperazine-1-carbonyl]phenyl]-5-(2,3-difluoro-4-methoxy-phenyl)-1-methyl-imidazole-2-carboxamide trifluoroacetate]	–
40	Cn1c(-c2ccc(OCC#N)c(F)c2F)cnc1C(=O)Nc1ccc(C(=O)N2CCN(C(=O)[C@@H]3CCNC3)CC2)c(Cl)c1 [Example 199, (R)-N-(3-chloro-4-(4-(pyrrolidine-3-carbonyl)piperazine-1-carbonyl)phenyl)-5-(4-(cyanomethoxy)-2,3-difluorophenyl)-1-methyl-1H-imidazole-2-carboxamide 2,2,2-trifluoroacetate]	–
50	Cn1c(-c2ccc(OCC#N)c(F)c2F)cnc1C(=O)Nc1ccc(C(=O)N2CCN(C(=O)[C@@H]3C[C@H](O)CN3)CC2)c(Cl)c1 [Example 201, N-(3-chloro-4-(4-((2S,4S)-4-hydroxypyrrolidine-2-carbonyl)piperazine-1-carbonyl)phenyl)-5-(4-(cyanomethoxy)-2,3-difluorophenyl)-1-methyl-1H-imidazole-2-carboxamide formate]	–
90	Cn1c(-c2ccc(OCC#N)c(F)c2F)cnc1C(=O)Nc1ccc(C(=O)N2CCN(C(=O)[C@@H]3C[C@@H](O)CN3)CC2)c(Cl)c1 [Example 202, N-(3-chloro-4-(4-((2S,4R)-4-hydroxypyrrolidine-2-carbonyl)piperazine-1-carbonyl)phenyl)-5-(4-(cyanomethoxy)-2,3-difluorophenyl)-1-methyl-1H-imidazole-2-carboxamide 2,2,2-trifluoroacetate]	–
60	CNCC(=O)N1CCN(C(=O)c2ccc(NC(=O)c3ncc(-c4ccc(OCC#N)c(F)c4F)n3C)cc2Cl)CC1 [Example 205, N-(3-chloro-4-(4-(methylglycyl)piperazine-1-carbonyl)phenyl)-5-(4-(cyanomethoxy)-2,3-difluorophenyl)-1-methyl-1H-imidazole-2-carboxamide formate]	–
70	CNCC(=O)N1CCN(C(=O)c2ccc(NC(=O)c3ncc(-c4ccc(OC)c(F)c4F)n3C)cc2Cl)CC1 [Example 105, N-[3-chloro-4-[4-[2-(methylamino)acetyl]piperazine-1-carbonyl]phenyl]-5-(2,3-difluoro-4-methoxy-phenyl)-1-methyl-imidazole-2-carboxamide trifluoroacetate]	–
90	Cc1cc(NC(=O)c2ncc(-c3ccc(OCC#N)c(F)c3F)n2C)ccc1C(=O)N1CCN(C(=O)[C@@H]2CCNC2)CC1 [Example 203, (R)-5-(4-(cyanomethoxy)-2,3-difluorophenyl)-1-methyl-N-(3-methyl-4-(4-(pyrrolidine-3-carbonyl)piperazine-1-carbonyl)phenyl)-1H-imidazole-2-carboxamide 2,2,2-trifluoroacetate]	–
80	COc1ccc(-c2cnc(C(=O)Nc3ccc(C(=O)N4CCN(C(=O)[C@@H]5C[C@H](O)CN5)CC4)c(Cl)c3)n2C)c(F)c1F [Example 107, N-[3-chloro-4-[4-[(2S,4S)-4-hydroxypyrrolidine-2-carbonyl]piperazine-1-carbonyl]phenyl]-5-(2,3-difluoro-4-methoxy-phenyl)-1-methyl-imidazole-2-carboxamide trifluoroacetate]	–
70	Cn1c(-c2ccc(OCC#N)c(F)c2F)cnc1C(=O)Nc1ccc(C(=O)N2CCN(C(=O)C3CCNCC3)CC2)c(Cl)c1 [Example 196, N-(3-chloro-4-(4-(piperidine-4-carbonyl)piperazine-1-carbonyl)phenyl)-5-(4-(cyanomethoxy)-2,3-difluorophenyl)-1-methyl 1H-imidazole-2-carboxamide formate]	–
100	CNCC(=O)N1CCN(C(=O)c2ccc(NC(=O)c3ncc(-c4ccc(OCC#N)c(F)c4F)n3C)cc2C)CC1 [Example 206, 5-(4-(cyanomethoxy)-2,3-difluorophenyl)-1-methyl-N-(3-methyl-4-(4-(methylglycyl)piperazine-1-carbonyl)phenyl)-1H-imidazole-2-carboxamide 2,2,2-trifluoroacetate]	–
50	Cn1c(-c2ccc(OCC#N)c(F)c2F)cnc1C(=O)Nc1ccc(C(=O)N2CCN(C(=O)C3(O)CCNCC3)CC2)c(Cl)c1 [Example 207, N-(3-chloro-4-(4-(4-hydroxypiperidine-4-carbonyl)piperazine-1-carbonyl)phenyl)-5-(4-(cyanomethoxy)-2,3-difluorophenyl)-1-methyl-1H-imidazole-2-carboxamide 2,2,2-trifluoroacetate]	–
100	Cn1c(-c2ccc(OCC#N)c(F)c2F)cnc1C(=O)Nc1ccc(C(=O)N2CCC(C(=O)N3CCOCC3)CC2)c(Cl)c1 [Example 74, N-(3-chloro-4-(4-(morpholine-4-carbonyl)piperidine-1-carbonyl)phenyl)-5-(4-(cyanomethoxy)-2,3-difluorophenyl)-1-methyl-1H-imidazole-2-carboxamide]	–
60	Cn1c(-c2ccc(OCC#N)c(F)c2F)cnc1C(=O)Nc1ccc(C(=O)N2CCC(C(=O)N3CCOC(CN)C3)CC2)c(Cl)c1 (stereo not drawn) [Example 73, N-(4-(4-(2-(aminomethyl)morpholine-4-carbonyl)piperidine-1-carbonyl)-3-chlorophenyl)-5-(4-(cyanomethoxy)-2,3-difluorophenyl)-1-methyl-1H-imidazole-2-carboxamide 2,2,2-trifluoroacetate]	–
